Laboratory results: patent US4428942A, “Analogs of somatostatin” (The Salk Institute for Biological Studies, priority 1982, dated 1984)
Like-named read-outs stand apart in the source and are kept apart here. Bridge positions count the residues as written; N and C are the ends. Square brackets hold non-standard residues; d marks the D form. Peptide text beside a SMILES is read from it.

Key:
[1] = tested on: release of growth hormone induced by isobutyl methyl xanthine in pituitary cells; format: cell-based, rat
Description: To determine the effectiveness of the peptides to inhibit the release of growth hormone, in vitro radioimmunoassays are carried out using the SS analogs in side-by-side comparison with equimolar concentrations of somatostatin-14 having a known effectiveness to inhibit the release of growth hormone induced by the application of isobutyl methyl xanthine to pituitary cells. Cultures are used which include cells of rat pituitary glands removed some four to five days previously in a system that minimizes enzymatic degradation, generally following the procedure set forth in Vale et al., Methods in Enzymology, Hormones and Cyclic Nucleotides (1975) Vol. 37, p. 82. Both cultures of a defined standard medium and cultures which are considered optimal for the secretion of growth hormone, as a result of having additions of either 2% or 10% of serum from a foetal calf, are used for the comparative testing.

secretion of insulin = conditions: in vivo
Description: (§1) In vivo experiments are carried out with the analogs, using the procedure described in Brown et al., Metabolism (1976) Vol. 25, pp. 1501-1503, to determine the potency, relative to somatostatin-14, to inhibit the secretion of glucagon and insulin stimulated by the administration of arginine to groups of six rats.

secretion of glucagon = tested on: secretion of glucagon; parameters: species or system rats; conditions: in vivo
Description: as §1

isolated rabbit ileum = tested on: isolated rabbit ileum
Description: The analogs are tested in vitro in isolated rabbit ileum using the modified Ussing chamber technique, as described in Amer. J. of Physiol., 225:776-780 (1973). Unidirectional chloride fluxes are determined and used to characterize bi-directional fluxes following the addition of an SS-analog. Changes are measured with varying concentrations, and the potency to inhibit ion transport is quantitated and expressed as a percentage of the potency of SS-14.

[2] = cultured rat pituitary cells, isobutyl methyl xanthine-induced release, SS-14 = 100
[3] = arginine-stimulated, rats, SS-14 = 100
[4] = isolated rabbit ileum, Ussing chamber, chloride fluxes, SS-14 = 100

C[C@H](N)C(=O)NCC(=O)N[C@H]1CSSC[C@@H](C(=O)O)NC(=O)[C@H](CO)NC(=O)[C@H]([C@@H](C)O)NC(=O)[C@H]([C@@H](C)O)NC(=O)[C@H](CCCCN)NC(=O)[C@H](Cc2c[nH]c3ccccc23)NC(=O)[C@H](Cc2ccccc2)NC(=O)[C@H](Cc2ccccc2)NC(=O)[C@H](CC(N)=O)NC(=O)[C@H](CCCCN)NC1=O [Peptide 8, des-Phe^11 --SS] (H-AGCKNFFWKTTSC-OH; disulfide 3-13)
GH (potency for the inhibition of GH release relative to SS-14) [1]: 2% | Insulin (potency to inhibit insulin secretion relative to SS-14) (secretion of insulin; rat): < 1% | Glucagon (potency to inhibit glucagon secretion relative to SS-14) (secretion of glucagon; rat): < 1% | Ion Transport (potency to inhibit ion transport expressed as a percentage of the potency of SS-14) (isolated rabbit ileum): 34%

C[C@H](N)C(=O)NCC(=O)N[C@H]1CSSC[C@H](C(=O)O)NC(=O)[C@H](CO)NC(=O)[C@H]([C@@H](C)O)NC(=O)[C@H](Cc2ccccc2)NC(=O)[C@H]([C@@H](C)O)NC(=O)[C@H](CCCCN)NC(=O)[C@H](Cc2c[nH]c3ccccc23)NC(=O)[C@H](Cc2ccccc2)NC(=O)[C@H](Cc2ccccc2)NC(=O)[C@H](CC(N)=O)NC(=O)[C@H](CCCCN)NC1=O [Peptide 17, [D-Cys^14]--SS]
GH (potency for the inhibition of GH release relative to SS-14) [1, 2]: 270% | Insulin (potency to inhibit insulin secretion relative to SS-14) (secretion of insulin; [3]): 20% | Glucagon (potency to inhibit glucagon secretion relative to SS-14) (secretion of glucagon; [3]): 310% | Ion Transport (potency to inhibit ion transport expressed as a percentage of the potency of SS-14) (isolated rabbit ileum; [4]): 336%

C[C@H](N)C(=O)NCC(=O)N[C@H]1CSSC[C@@H](C(=O)O)NC(=O)[C@H](CO)NC(=O)[C@H]([C@@H](C)O)NC(=O)[C@H](Cc2ccccc2)NC(=O)[C@H]([C@@H](C)O)NC(=O)[C@H](CCCCN)NC(=O)[C@H](Cc2c[nH]c3ccccc23)NC(=O)[C@H](Cc2ccccc2)NC(=O)[C@H](Cc2ccccc2)NC(=O)[C@H](CCCCN)NC1=O [Peptide 13, des-Asn^5 --SS] (H-AGCKFFWKTFTSC-OH; disulfide 3-13)
GH (potency for the inhibition of GH release relative to SS-14) [1, 2]: 4% | Insulin (potency to inhibit insulin secretion relative to SS-14) (secretion of insulin; [3]): 10% | Glucagon (potency to inhibit glucagon secretion relative to SS-14) (secretion of glucagon; [3]): < 1% | Ion Transport (potency to inhibit ion transport expressed as a percentage of the potency of SS-14) (isolated rabbit ileum; [4]): 11%

C[C@H](N)C(=O)NCC(=O)N[C@H]1CSSC[C@@H](C(=O)O)NC(=O)[C@H](CO)NC(=O)[C@H]([C@@H](C)O)NC(=O)[C@H](Cc2c[nH]cn2)NC(=O)[C@H]([C@@H](C)O)NC(=O)[C@H](CCCCN)NC(=O)[C@H](Cc2c[nH]c3ccccc23)NC(=O)[C@H](Cc2ccccc2)NC(=O)[C@H](Cc2ccccc2)NC(=O)[C@H](CC(N)=O)NC(=O)[C@H](CCCCN)NC1=O [Peptide 10, [His^11]--SS] (H-AGCKNFFWKTHTSC-OH; disulfide 3-14)
Insulin (potency to inhibit insulin secretion relative to SS-14) (secretion of insulin; rat): < 1% | Glucagon (potency to inhibit glucagon secretion relative to SS-14) (secretion of glucagon; rat): < 1% | Ion Transport (potency to inhibit ion transport expressed as a percentage of the potency of SS-14) (isolated rabbit ileum): 48%

C[C@@H](O)[C@@H]1NC(=O)[C@H](Cc2ccccc2)NC(=O)[C@H]([C@@H](C)O)NC(=O)[C@H](CCCCN)NC(=O)[C@H](Cc2c[nH]c3ccccc23)NC(=O)[C@H](Cc2ccccc2)NC(=O)[C@H](Cc2ccccc2)NC(=O)[C@H](CC(N)=O)NC(=O)[C@H](CCCCN)NC(=O)[C@@H](N)CSSC[C@@H](C(=O)O)NC(=O)[C@H](CO)NC1=O [Peptide 9, des-Ala^1,Gly^2 --SS] (H-CKNFFWKTFTSC-OH; disulfide 1-12)
GH (potency for the inhibition of GH release relative to SS-14) [1, 2]: 60% | Insulin (potency to inhibit insulin secretion relative to SS-14) (secretion of insulin; [3]): 61% | Ion Transport (potency to inhibit ion transport expressed as a percentage of the potency of SS-14) (isolated rabbit ileum; [4]): 231%

C[C@H](N)C(=O)NCC(=O)N[C@H]1CSSC[C@@H](C(=O)O)NC(=O)[C@H](CO)NC(=O)[C@H]([C@@H](C)O)NC(=O)[C@H](CCC(=O)O)NC(=O)[C@H]([C@@H](C)O)NC(=O)[C@H](CCCCN)NC(=O)[C@H](Cc2c[nH]c3ccccc23)NC(=O)[C@H](Cc2ccccc2)NC(=O)[C@H](Cc2ccccc2)NC(=O)[C@H](CC(N)=O)NC(=O)[C@H](CCCCN)NC1=O [Peptide 12, [Glu^11]--SS] (H-AGCKNFFWKTETSC-OH; disulfide 3-14)
Insulin (potency to inhibit insulin secretion relative to SS-14) (secretion of insulin; rat): < 1% | Glucagon (potency to inhibit glucagon secretion relative to SS-14) (secretion of glucagon; rat): < 1% | Ion Transport (potency to inhibit ion transport expressed as a percentage of the potency of SS-14) (isolated rabbit ileum): 9%

C[C@H](N)C(=O)NCC(=O)N[C@H]1CSSC[C@@H](C(=O)O)NC(=O)[C@H](CO)NC(=O)[C@H]([C@@H](C)O)NC(=O)[C@H](CCCNC(=N)N)NC(=O)[C@H]([C@@H](C)O)NC(=O)[C@H](CCCCN)NC(=O)[C@H](Cc2c[nH]c3ccccc23)NC(=O)[C@H](Cc2ccccc2)NC(=O)[C@H](Cc2ccccc2)NC(=O)[C@H](CC(N)=O)NC(=O)[C@H](CCCCN)NC1=O [Peptide 2, [Arg^11]--SS] (H-AGCKNFFWKTRTSC-OH; disulfide 3-14)
Insulin (potency to inhibit insulin secretion relative to SS-14) (secretion of insulin; rat): 142% | Glucagon (potency to inhibit glucagon secretion relative to SS-14) (secretion of glucagon; rat): < 1% | Ion Transport (potency to inhibit ion transport expressed as a percentage of the potency of SS-14) (isolated rabbit ileum): 291%

C[C@@H](O)[C@@H]1NC(=O)[C@H](Cc2c[nH]c3ccccc23)NC(=O)[C@H]([C@@H](C)O)NC(=O)[C@H](CCCCN)NC(=O)[C@H](Cc2c[nH]c3ccccc23)NC(=O)[C@H](Cc2ccccc2)NC(=O)[C@H](Cc2ccccc2)NC(=O)[C@H](CC(N)=O)NC(=O)[C@H](CCCCN)NC(=O)[C@@H](N)CSSC[C@@H](C(=O)O)NC(=O)[C@H](CO)NC1=O [Peptide 3, des-AA^1,2,[Trp^11]--SS] (H-CKNFFWKTWTSC-OH; disulfide 1-12)
Ion Transport (potency to inhibit ion transport expressed as a percentage of the potency of SS-14) (isolated rabbit ileum): 405%

C[C@@H](O)[C@@H]1NC(=O)[C@H](CCCCN)NC(=O)[C@@H](Cc2c[nH]c3ccccc23)NC(=O)[C@H](Cc2ccccc2)NC(=O)[C@H](Cc2ccccc2)NC(=O)[C@@H](N)CSSC[C@@H](C(=O)O)NC(=O)[C@H](CO)NC(=O)[C@H](Cc2c[nH]c3ccccc23)NC1=O [Peptide 4, des-AA^1,2,4,5,12,[D-Trp^8,Trp^11]--SS] (H-CFF[dW]KTWSC-OH; disulfide 1-9)
Ion Transport (potency to inhibit ion transport expressed as a percentage of the potency of SS-14) (isolated rabbit ileum): 37%

C[C@H](N)C(=O)NCC(=O)N[C@H]1CSSC[C@@H](C(=O)O)NC(=O)[C@H](CO)NC(=O)[C@H]([C@@H](C)O)NC(=O)[C@H](C)NC(=O)[C@H]([C@@H](C)O)NC(=O)[C@H](CCCCN)NC(=O)[C@H](Cc2c[nH]c3ccccc23)NC(=O)[C@H](Cc2ccccc2)NC(=O)[C@H](Cc2ccccc2)NC(=O)[C@H](CC(N)=O)NC(=O)[C@H](CCCCN)NC1=O [Peptide 5, [Ala^11]--SS] (H-AGCKNFFWKTATSC-OH; disulfide 3-14)
GH (potency for the inhibition of GH release relative to SS-14) [1]: 3% | Insulin (potency to inhibit insulin secretion relative to SS-14) (secretion of insulin; rat): < 10% | Ion Transport (potency to inhibit ion transport expressed as a percentage of the potency of SS-14) (isolated rabbit ileum): 52%

des-AA^1,2,[β-Nal^11 ]--SS [Peptide 11]
Ion Transport (potency to inhibit ion transport expressed as a percentage of the potency of SS-14) (isolated rabbit ileum; [4]): 107%
